{"source": "patent US20250215029A1", "about": "(Recludix Pharma, Inc., priority 2022, published 2025)", "note": "pIC50: −log10 of the molar value.", "data": [{"molecular_target": "T1, pY705-STAT3 in PBMC (Homo sapiens, UniProt P40763)", "T1 construct": "Cryopreserved Peripheral Blood Mononuclear Cells (PBMC) are from AllCells; host or cells: cryopreserved PBMC", "T1 sequence (P40763 whole entry)": "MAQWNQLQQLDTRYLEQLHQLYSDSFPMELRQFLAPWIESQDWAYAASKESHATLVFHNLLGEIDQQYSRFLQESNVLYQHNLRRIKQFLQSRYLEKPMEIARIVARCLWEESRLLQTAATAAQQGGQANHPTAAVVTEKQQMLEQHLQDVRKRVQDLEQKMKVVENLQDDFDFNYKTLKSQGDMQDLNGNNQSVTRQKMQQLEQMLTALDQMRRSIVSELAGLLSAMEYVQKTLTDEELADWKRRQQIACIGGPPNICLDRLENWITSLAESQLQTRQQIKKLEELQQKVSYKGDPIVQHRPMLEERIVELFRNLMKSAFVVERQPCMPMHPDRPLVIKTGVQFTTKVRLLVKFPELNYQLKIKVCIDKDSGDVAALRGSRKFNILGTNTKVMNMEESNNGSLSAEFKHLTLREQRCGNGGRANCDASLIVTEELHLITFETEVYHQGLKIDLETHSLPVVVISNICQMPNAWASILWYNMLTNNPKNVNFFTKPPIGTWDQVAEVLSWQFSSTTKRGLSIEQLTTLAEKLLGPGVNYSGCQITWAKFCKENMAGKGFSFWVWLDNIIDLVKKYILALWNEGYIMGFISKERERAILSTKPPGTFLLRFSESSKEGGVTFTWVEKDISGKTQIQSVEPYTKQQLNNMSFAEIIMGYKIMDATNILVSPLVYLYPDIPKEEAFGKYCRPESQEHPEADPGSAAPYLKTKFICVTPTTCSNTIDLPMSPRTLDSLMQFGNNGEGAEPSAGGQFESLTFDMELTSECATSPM", "assay": "MSD-pSTAT-PBMC Assay (pSTAT3, IL-6 stimulated)", "assay_type": "cell-based", "conditions": "PBMC, compound 3 hrs, then 10 ng/mL IL-6 for 10 min; Table 115; read-out: STAT3", "summary_of_the_method": "(§1)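 PBMC (human, cryopreserved, overnight recovery) + cpd 3 hrs → IL-6 10 ng/mL (STAT3) or IL-4 1 ng/mL (STAT6) ×10 min → lysis with protease/phosphatase inhibitors → MSD capture/phospho detection. IC50, variable slope, DMSO-normalized.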", "values": [{"smiles": "COC[C@H](NP(=O)(Cc1ccc2sc(C(=O)N[C@H]3CCC[C@H]4CC[C@@H](C(=O)N5CC(c6cccnc6)C5)N4C3=O)cc2c1)Oc1ccccc1)C(=O)OC(C)C", "note": "(stereo partly drawn) [Compound 392, isopropyl O-methyl-N-(((2-(((3S,6S,9aS)-5-oxo-3-(3-(pyridin-3-yl)azetidine-1-carbonyl)octahydro-1H-pyrrolo[1,2-a]azepin-6-yl)carbamoyl)benzo [b]thiophen-5-yl)methyl)(phenoxy)phosphoryl)-L-serinate]", "pIC50": "6.00 to 7.00"}, {"smiles": "CCCOC(=O)[C@H](C)NP(=O)(Cc1ccc2sc(C(=O)N[C@H]3CCC[C@H]4CC[C@@H](C(=O)N5CC(c6cccnc6)C5)N4C3=O)cc2c1)N1CCCC1=O", "note": "(stereo partly drawn) [Compound 433, propyl (((2-(((3S,6S,9aS)-5-oxo-3-(3-(pyridin-3-yl)azetidine-1-carbonyl)octahydro-1H-pyrrolo[1,2-a]azepin-6-yl)carbamoyl)benzo [b]thiophen-5-yl)methyl)(2-oxopyrrolidin-1-yl)phosphoryl)-L-alaninate]", "pIC50": "5.52 to 6.00"}, {"smiles": "CCCOC(=O)[C@H](C)NP(=O)(Cc1ccc2sc(C(=O)N[C@H]3CCC[C@H]4CC[C@@H](C(=O)N5CC(c6cccnc6)C5)N4C3=O)cc2c1)OCC(F)(F)F", "note": "(stereo partly drawn) [Compound 428, propyl (((2-(((3S,6S,9aS)-5-oxo-3-(3-(pyridin-3-yl)azetidine-1-carbonyl)octahydro-1H-pyrrolo[1,2-a]azepin-6-yl)carbamoyl)benzo [b]thiophen-5-yl)methyl)(2,2,2-trifluoroethoxy)phosphoryl)-L-alaninate]", "pIC50": "> 7.00"}, {"smiles": "CCCOC(=O)[C@H](C)NP(=O)(Cc1ccc2sc(C(=O)N[C@H]3CCC[C@H]4CC[C@@H](C(=O)N5CC(c6cnccc6C6CC6)C5)N4C3=O)cc2c1)Oc1ccccc1", "note": "(stereo partly drawn) [Compound 267, propyl (((2-(((3S,6S,9aS)-3-(3-(4-cyclopropylpyridin-3-yl)azetidine-1-carbonyl)-5-oxooctahydro-1H-pyrrolo[1,2-a]azepin-6-yl)carbamoyl)benzo [b]thiophen-5-yl)methyl)(phenoxy)phosphoryl)-L-alaninate]", "pIC50": "> 7.00"}, {"smiles": "CCCOC(=O)[C@H](C)NP(=O)(Cc1ccc2sc(C(=O)N[C@H]3CCC[C@H]4CC[C@@H](C(=O)N5CC(c6cnc(F)cc6OC)C5)N4C3=O)cc2c1)Oc1ccccc1", "note": "(stereo partly drawn) [Compound 278, propyl (((2-(((3S,6S,9aS)-3-(3-(6-fluoro-4-methoxypyridin-3-yl)azetidine-1-carbonyl)-5-oxooctahydro-1H-pyrrolo[1,2-a]azepin-6-yl)carbamoyl)benzo [b]thiophen-5-yl)methyl)(phenoxy)phosphoryl)-L-alaninate]", "pIC50": "6.00 to 7.00"}, {"smiles": "CCCCOC(=O)[C@@H]1CC(F)(F)CN1P(=O)(Oc1ccccc1)C(F)(F)c1ccc2sc(C(=O)N[C@H]3CCC[C@H]4CC[C@@H](C(=O)N5CC(c6cccnc6)C5)N4C3=O)cc2c1", "note": "(stereo partly drawn) [Compound 323, butyl (2S)-1-((difluoro(2-(((3S,6S,9aS)-5-oxo-3-(3-(pyridin-3-yl)azetidine-1-carbonyl)octahydro-1H-pyrrolo[1,2-a]azepin-6-yl)carbamoyl)benzo [b]thiophen-5-yl)methyl)(phenoxy)phosphoryl)-4,4-difluoropyrrolidine-2-carboxylate]", "pIC50": "< 5.52"}, {"smiles": "CCCOC(=O)[C@H](C)N[P@](=O)(Oc1ccccc1)[C@@H](F)c1ccc2sc(C(=O)N[C@H]3C[C@@H](C)C[C@H]4CC[C@@H](C(=O)N5CC(c6cnccc6OC(C)C)C5)N4C3=O)cc2c1", "note": "(single isomer, unassigned) [Compound 1033]", "pIC50": "> 7.00"}, {"smiles": "CCCOC(=O)[C@H](C)NP(=O)(Oc1ccccc1)[C@@H](F)c1ccc2sc(C(=O)N[C@H]3CCC[C@H]4CC[C@@H](C(=O)N[C@H]5CN(c6ncc[nH]6)C[C@@H]5F)N4C3=O)cc2c1", "note": "(stereo partly drawn) [Compound 1030, propyl (((R)-fluoro(2-(((3S,6S,9aS)-3-(((3S,4S)-4-fluoro-1-(1H-imidazol-2-yl)pyrrolidin-3-yl)carbamoyl)-5-oxooctahydro-1H-pyrrolo[1,2-a]azepin-6-yl)carbamoyl)benzo [b]thiophen-5-yl)methyl)(phenoxy)phosphoryl)-L-alaninate]", "pIC50": "< 5.52"}, {"smiles": "CCCOC(=O)[C@H](C)N[P@@](=O)(Oc1ccccc1)[C@@H](F)c1ccc2sc(C(=O)N[C@H]3C[C@H](C)C[C@H]4CC[C@@H](C(=O)N5CC(c6cnccc6OC)C5)N4C3=O)cc2c1", "note": "(single isomer, unassigned) [Compound 1041]", "pIC50": "> 7.00"}, {"smiles": "CCCOC(=O)[C@H](C)NP(=O)(Oc1ccccc1)[C@H](F)c1ccc2sc(C(=O)N[C@H]3CCC[C@H]4CC[C@@H](C(=O)N5CC(c6cncnc6N6CC[C@H]6COC)C5)N4C3=O)cc2c1", "note": "(stereo partly drawn) [Compound 1018, propyl (((S)-fluoro(2-(((3S,6S,9aS)-3-(3-(4-((S)-2-(methoxymethyl)azetidin-1-yl)pyrimidin-5-yl)azetidine-1-carbonyl)-5-oxooctahydro-1H-pyrrolo[1,2-a]azepin-6-yl)carbamoyl)benzo [b]thiophen-5-yl)methyl)(phenoxy)phosphoryl)-L-alaninate]", "pIC50": "> 7.00"}, {"smiles": "CCCOC(=O)[C@H](C)N[P@](=O)(Oc1ccccc1)[C@@H](F)c1ccc2sc(C(=O)N[C@H]3CCC[C@H]4CC[C@@H](C(=O)N5CC(c6cnccc6C)C5)N4C3=O)cc2c1", "note": "(single isomer, unassigned) [Compound 1035]", "pIC50": "> 7.00"}, {"smiles": "CCCOC(=O)[C@H](C)NP(=O)(Cc1ccc2sc(C(=O)N[C@H]3CCC[C@H]4CC[C@@H](C(=O)N5CC(c6cccnc6)C5)N4C3=O)cc2c1)Oc1ccccc1", "note": "(stereo partly drawn) [Compound 307, propyl (((2-(((3S,6S,9aS)-5-oxo-3-(3-(pyridin-3-yl)azetidine-1-carbonyl)octahydro-1H-pyrrolo[1,2-a]azepin-6-yl)carbamoyl)benzo [b]thiophen-5-yl)methyl)(phenoxy)phosphoryl)-L-alaninate]", "pIC50": "< 5.52"}, {"smiles": "CCCOC(=O)[C@H](C)N[P@@](=O)(Oc1ccccc1)[C@@H](F)c1ccc2sc(C(=O)N[C@H]3CCC[C@H]4CC[C@@H](C(=O)N5CC(c6cnccc6OC)C5)N4C3=O)cc2c1", "note": "(single isomer, unassigned) [Compound 1032]", "pIC50": "> 7.00"}, {"smiles": "CCCOC(=O)[C@H](C)NP(=O)(Oc1ccccc1)[C@H](F)c1ccc2sc(C(=O)N[C@H]3C[C@@H](C)C[C@H]4CC[C@@H](C(=O)N5CC(c6cncnc6N6CCC6)C5)N4C3=O)cc2c1", "note": "(stereo partly drawn) [Compound 1078]", "pIC50": "> 7.00"}, {"smiles": "CCCOC(=O)[C@H](C)NP(=O)(Cc1ccc2sc(C(=O)N[C@H]3CCC[C@H]4CC[C@@H](C(=O)N5CC(c6cn(C)ccc6=O)C5)N4C3=O)cc2c1)Oc1ccccc1", "note": "(stereo partly drawn) [Compound 979, propyl (((2-(((3S,6S,9aS)-3-(3-(1-methyl-4-oxo-1,4-dihydropyridin-3-yl)azetidine-1-carbonyl)-5-oxooctahydro-1H-pyrrolo[1,2-a]azepin-6-yl)carbamoyl)benzo [b]thiophen-5-yl)methyl)(phenoxy)phosphoryl)-L-alaninate]", "pIC50": "< 5.52"}, {"smiles": "COC1(c2cccnc2)CN(C(=O)[C@@H]2CC[C@@H]3CCCC[C@H](NC(=O)c4cc5cc(CP(=O)(N[C@@H](C)C(=O)OCC(C)C)Oc6ccccc6)ccc5s4)C(=O)N32)C1", "note": "(stereo partly drawn) [Compound 281, isobutyl (((2-(((3S,6S,10aS)-3-(3-methoxy-3-(pyridin-3-yl)azetidine-1-carbonyl)-5-oxodecahydropyrrolo [1,2-a]azocin-6-yl)carbamoyl)benzo [b]thiophen-5-yl)methyl)(phenoxy)phosphoryl)-L-alaninate]", "pIC50": "> 7.00"}, {"smiles": "CCCOC(=O)[C@H](Cc1ccccn1)NP(=O)(Cc1ccc2sc(C(=O)N[C@H]3CCC[C@H]4CC[C@@H](C(=O)N5CC(c6cccnc6)C5)N4C3=O)cc2c1)Oc1ccccc1", "note": "(stereo partly drawn) [Compound 432, propyl (2S)-2-((((2-(((3S,6S,9aS)-5-oxo-3-(3-(pyridin-3-yl)azetidine-1-carbonyl)octahydro-1H-pyrrolo[1,2-a]azepin-6-yl)carbamoyl)benzo [b]thiophen-5-yl)methyl)(phenoxy)phosphoryl)amino)-3-(pyridin-2-yl)propanoate]", "pIC50": "6.00 to 7.00"}, {"smiles": "CCCOC(=O)[C@H](C)NP(=O)(Oc1ccccc1)[C@H](F)c1ccc2sc(C(=O)N[C@H]3CCC[C@H]4CC[C@@H](C(=O)N5CC(c6cnccc6N6CCOCC6)C5)N4C3=O)cc2c1", "note": "(stereo partly drawn) [Compound 1065, propyl (((S)-fluoro(2-(((3S,6S,9aS)-3-(3-(4-morpholinopyridin-3-yl)azetidine-1-carbonyl)-5-oxooctahydro-1H-pyrrolo[1,2-a]azepin-6-yl)carbamoyl)benzo [b]thiophen-5-yl)methyl)(phenoxy)phosphoryl)-L-alaninate]", "pIC50": "> 7.00"}, {"smiles": "CCCOC(=O)[C@H](C)N[P@@](=O)(Oc1ccccc1)[C@@H](F)c1ccc2sc(C(=O)N[C@H]3C[C@@H](C)C[C@H]4CC[C@@H](C(=O)N5CC(c6cnccc6C)C5)N4C3=O)cc2c1", "note": "(single isomer, unassigned) [Compound 1036]", "pIC50": "> 7.00"}, {"smiles": "CCCOC(=O)[C@H](C)NP(=O)(Cc1ccc2sc(C(=O)N[C@H]3CCC[C@H]4CC[C@@H](C(=O)N5CC(c6cnccc6N(C)C)C5)N4C3=O)cc2c1)OCC(F)(F)F", "note": "(stereo partly drawn) [Compound 1025, propyl (((2-(((3S,6S,9aS)-3-(3-(4-(dimethylamino)pyridin-3-yl)azetidine-1-carbonyl)-5-oxooctahydro-1H-pyrrolo[1,2-a]azepin-6-yl)carbamoyl)benzo [b]thiophen-5-yl)methyl)(2,2,2-trifluoroethoxy)phosphoryl)-L-alaninate]", "pIC50": "> 7.00"}]}, {"molecular_target": "T1, pY705-STAT3 in PBMC", "assay": "MSD-pSTAT-PBMC Assay (pSTAT3, IL-6 stimulated)", "assay_type": "cell-based", "conditions": "STAT3, PBMC, compound 3 hrs, then 10 ng/mL IL-6 for 10 min; Table 115", "summary_of_the_method": "as §1", "values": [{"smiles": "CCCCOC(=O)[C@@H]1CC(F)(F)CN1P(=O)(Cc1ccc2sc(C(=O)N[C@H]3CCC[C@H]4CC[C@@H](C(=O)N5CC(c6cccnc6)C5)N4C3=O)cc2c1)Oc1ccccc1", "note": "(stereo partly drawn) [Compound 295, butyl (2S)-4,4-difluoro-1-(((2-(((3S,6S,9aS)-5-oxo-3-(3-(pyridin-3-yl)azetidine-1-carbonyl)octahydro-1H-pyrrolo[1,2-a]azepin-6-yl)carbamoyl)benzo [b]thiophen-5-yl)methyl)(phenoxy)phosphoryl) pyrrolidine-2-carboxylate]", "pIC50": "5.52 to 6.00"}]}]}
